Results published in patent publication US4873236A, “Condensed diazepinones, processes for preparing them and pharmaceutical compositions containing these compounds” (Dr. Karl Thomae GmbH, priority 1986, dated 1989).

What was measured:
[1] = target: T1, muscarinic receptors, heart ventricle (Rattus norvegicus, UniProt P10980); test: Receptor bonding test in vivo, heart ventricle (3H-NMS); parameters: species or system female rats; details: iv, 0.5 h, in vivo binding, i.v., 113 ng/kg 3H-NMS, read-out: ID50 Heart Ventricle
T1 construct: the heart, bronchi and lachrymal glands were removed; from tissue; host or cells: heart (atrium, ventricle) of female rats, labelled in vivo
T1 sequence (P10980 1-466): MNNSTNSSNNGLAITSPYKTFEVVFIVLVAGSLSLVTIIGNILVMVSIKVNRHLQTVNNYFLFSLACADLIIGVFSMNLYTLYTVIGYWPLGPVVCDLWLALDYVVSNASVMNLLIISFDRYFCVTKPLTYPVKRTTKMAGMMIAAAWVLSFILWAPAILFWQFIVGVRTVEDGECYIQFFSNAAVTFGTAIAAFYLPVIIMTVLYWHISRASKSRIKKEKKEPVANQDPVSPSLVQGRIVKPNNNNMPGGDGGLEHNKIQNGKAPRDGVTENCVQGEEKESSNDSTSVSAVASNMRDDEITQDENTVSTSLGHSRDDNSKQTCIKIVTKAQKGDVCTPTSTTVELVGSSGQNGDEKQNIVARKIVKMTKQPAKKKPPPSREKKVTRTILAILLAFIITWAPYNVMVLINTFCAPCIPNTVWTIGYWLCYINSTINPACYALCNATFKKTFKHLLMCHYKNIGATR
Experimental: (§1) For these experiments, female rats with a body weight of about 200 g were used. Before the start of the test the animals were anaesthetised with a dosage of 1.25 g/kg of urethane. The animals were each given the prescribed dosage of test substance by intravenous injection. After 15 minutes, 113 ng/kg of ^3 H-N-methylscopolamine (^3 H-NMS) were administered by the same route. After another 15 minutes the animals were killed and the heart, bronchi and lachrymal glands were removed. These organs were dissolved in Soluene R and the radioactivity was determined. The measurements were assumed to be total bonding. […] ID50 values were determined for the individual organs using these tests.

[2] = target: T2, muscarinic receptors, heart (Rattus norvegicus, UniProt P10980); test: Receptor bonding test in vitro, heart (displacement of 3H-N-methylscopolamine); assay type: binding, Sprague-Dawley rats; details: for IC50: 0.3 nmolar 3H-NMS, 30° C., 45 min, heart
T2 construct: After removal of the heart and submandibular gland; from tissue; host or cells: whole heart of male Sprague-Dawley rats, homogenate
T2 sequence (P10980 1-466): T1 sequence (P10980 1-466)

[3] = test system: muscarinic receptors of the atrium; test: Dissociation constants (KB) on spontaneously beating right atrium, methacholine antagonism; parameters: species or system guinea pig; details: Table IV
Experimental: (§2) Dissociation constants (KB values) were determined in vitro on the guinea pig ileum and spontaneously beating atrium. The ileum was removed and incubated in Krebs-Henseleit solution in an organ bath. Contractions were produced by means of increasing concentrations of methacholine (M) so that a full concentration-activity curve could be plotted. Then M was washed out, the test substance was added and kept in contact for 30 minutes and again a concentration-activity curve was plotted with M. The dissociation constant was calculated according to Arunlakshana and Schild (Brit. J. Pharmacol. 14, 48, 1959) from the dosage ratio (DR), i.e. the extent of displacement of the concentration-activity curve.
(§3) In the isolated, spontaneously beating right atrium M reduced the heart rate as a function of the concentration. This effect was stopped by the addition of an antimuscarinic. Dissociation constants for the muscarinic receptors of the atrium were obtained in the same way as described above. A comparison of the dissociation constants measured in the two different tissues made it possible to identify cardioselective substances.

[4] = target: T3, muscarinic receptors of the atrium (Cavia porcellus, UniProt H0VRN8); test: as above; parameters: species or system guinea pig; details: guinea pig spontaneously beating atrium, methacholine, 30 min contact; read-out: KB Heart (dissociation constant)
T3 construct: In the isolated, spontaneously beating right atrium; from tissue; host or cells: isolated right atrium of guinea pig
T3 sequence (H0VRN8 1-466): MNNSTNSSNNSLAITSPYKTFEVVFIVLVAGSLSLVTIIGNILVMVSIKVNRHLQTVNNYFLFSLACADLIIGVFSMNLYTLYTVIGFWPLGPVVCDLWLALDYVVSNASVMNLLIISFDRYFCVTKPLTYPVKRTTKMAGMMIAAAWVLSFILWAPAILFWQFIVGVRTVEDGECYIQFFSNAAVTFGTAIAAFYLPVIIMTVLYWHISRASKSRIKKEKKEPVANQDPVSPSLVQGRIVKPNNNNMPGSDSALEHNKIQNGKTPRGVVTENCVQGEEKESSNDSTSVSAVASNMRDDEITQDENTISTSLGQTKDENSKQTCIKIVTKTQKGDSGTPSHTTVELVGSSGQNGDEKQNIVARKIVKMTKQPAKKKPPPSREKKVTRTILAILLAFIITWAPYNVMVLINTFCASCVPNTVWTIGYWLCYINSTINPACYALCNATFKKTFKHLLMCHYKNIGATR
Experimental: as §2, §3

[5] = target: T4, M1 (rise in blood pressure by McN-A-343) (Rattus norvegicus, UniProt P08482); test: M1/M2 selectivity in the rat: inhibition of McN-A-343 blood pressure increase (M1); assay type: in vivo, male THOM rats; details: iv, 5 min, i.v., 50% reduction in blood pressure rise by 0.3 mg/kg McN-A-343, read-out: M1 activity (rat) ED50
T4 construct: from tissue
T4 sequence (P08482 1-460): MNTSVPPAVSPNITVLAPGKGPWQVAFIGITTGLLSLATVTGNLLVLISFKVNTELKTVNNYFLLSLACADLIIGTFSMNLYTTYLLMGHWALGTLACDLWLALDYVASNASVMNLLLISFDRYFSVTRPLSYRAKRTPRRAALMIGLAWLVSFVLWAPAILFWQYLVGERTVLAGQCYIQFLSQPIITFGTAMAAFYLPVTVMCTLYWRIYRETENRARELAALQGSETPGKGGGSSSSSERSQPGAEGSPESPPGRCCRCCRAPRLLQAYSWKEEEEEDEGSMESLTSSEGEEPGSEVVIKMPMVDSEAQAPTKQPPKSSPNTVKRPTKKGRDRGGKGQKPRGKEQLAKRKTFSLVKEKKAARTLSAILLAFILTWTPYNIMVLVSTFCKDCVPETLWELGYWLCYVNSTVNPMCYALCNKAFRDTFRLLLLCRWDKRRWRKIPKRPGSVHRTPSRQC

[6] = target: T5, muscarinic receptors, heart atrium (Rattus norvegicus, UniProt P10980); test: Receptor bonding test in vivo, heart atrium (3H-NMS); parameters: species or system female rats; details: for potency in the heart (in words): Table V, atrium/ventricle, vs comparison substances; for ED50: iv, 0.5 h, i.v., 113 ng/kg 3H-NMS, read-out: ID50 Heart Atrium
T5 construct: from tissue; host or cells: heart (atrium, ventricle) of female rats, labelled in vivo
T5 sequence (P10980 1-466): T1 sequence (P10980 1-466)
Experimental: as §1

[7] = test system: muscarinic receptors, bronchi; test: Receptor bonding test in vivo, bronchi (3H-NMS); parameters: species or system female rats; details: in vivo binding, i.v., rat, 113 ng/kg 3H-NMS; 30 min
Experimental: as §1

salivation = test: Salivation-inhibiting effect on the rat (pilocarpine); assay type: in vivo, male THOM rats; details: for ED50: Rattus norvegicus, iv, pilocarpine 2 mg/kg s.c., 50% reduction of saliva volume, read-out: Salivation inhibition (rat) ED50
Experimental: The secretion of saliva was triggered by subcutaneous administration of 2 mg/kg of pilocarpine. The saliva was soaked up with blotting paper and the area occupied by the saliva was determined by planimetry every 5 minutes. The dosage of substance which reduced the volume of saliva by 50% was determined graphically.

ED50 [1] [mg/kg]	Selectivity factor: Ratio IC50 submandibular gland to IC50 heart [2]	IC50 [2] [nM]	Kb [4] [nM]	Ratio of ID50 lachrymal gland to ID50 atrium ([6]; in vivo binding, rat, 30 min)	ED50 ([6]; in vivo binding, rat) [mg/kg]	SMILES	efficacy compared with X and Y (in words) [3]	ED50 [5] [mg/kg]	potency in the heart (in words) [6]	ID50 Bronchi [7] [mg/kg]	ED50 (salivation) [mg/kg]	Ratio of salivation inhibition to M2 activity (salivation; rat, i.v. ED50 values)
0.006	5	3	0.24	> 40	0.025	CCN(CC)CC1CCCCN1CCNC(=O)N1c2ccccc2NC(=O)c2csc(C)c21 (stereo not drawn) [Substance B, 4-[[[2-[2-[(diethylamino)methyl]-piperidin-1-yl]ethyl]amino]carbonyl]-4,9-dihydro-3-methyl-10H-thieno[3,4-b][1,5]benzodiazepin-10-one]	significantly more effective than X and Y	0.033	decisive improvement in potency compared with substances Y and Y in the heart	0.15	0.078	9.75
0.09		30	4.9		0.2	CCN(CC)CC1CCCCN1CCNC(=O)N1c2cc(Cl)ccc2C(=O)Nc2cccnc21 (stereo not drawn) [Substance C, 9-chloro-11-[[[2-[2-[(diethylamino)methyl]-piperidin-1-yl]ethyl]amino]carbonyl]-5,11-dihydro-6H-pyrido[2,3-b][1,4]benzodiazepin-6-one]	significantly more effective than X and Y	0.36	decisive improvement in potency compared with substances Y and Y in the heart	3.0	1.4	
0.15		20	2.45		0.2	CCCN(CCC)CC1CCCCN1CCNC(=O)N1c2ccccc2C(=O)Nc2cccnc21 (stereo not drawn) [Substance A, 5,11-dihydro-11-[[[2-[2-[(dipropylamino)methyl]-piperidin-1-yl]ethyl]amino]carbonyl]-6H-pyrido[2,3-b][1,4]benzodiazepin-6-one]	significantly more effective than X and Y	0.562	decisive improvement in potency compared with substances Y and Y in the heart	0.7	0.458	
